Measured values taken from ChEMBL document CHEMBL1150448, “Dihydropyridines: a new class of angiotensin II antagonists” (Bioorg Med Chem Lett, 1994).

Tests used:
[1] = target: T1, Angiotensin II receptor (AT-1) type-1 (Rattus norvegicus, UniProt P29089+P25095); assay: Binding affinity to Angiotensin II receptor, type 1 as displacement of 125I-Sar, Ile-AII from rat adrenal cortex membranes; format: cell membranes, Membrane
T1 sequence (P29089 whole entry): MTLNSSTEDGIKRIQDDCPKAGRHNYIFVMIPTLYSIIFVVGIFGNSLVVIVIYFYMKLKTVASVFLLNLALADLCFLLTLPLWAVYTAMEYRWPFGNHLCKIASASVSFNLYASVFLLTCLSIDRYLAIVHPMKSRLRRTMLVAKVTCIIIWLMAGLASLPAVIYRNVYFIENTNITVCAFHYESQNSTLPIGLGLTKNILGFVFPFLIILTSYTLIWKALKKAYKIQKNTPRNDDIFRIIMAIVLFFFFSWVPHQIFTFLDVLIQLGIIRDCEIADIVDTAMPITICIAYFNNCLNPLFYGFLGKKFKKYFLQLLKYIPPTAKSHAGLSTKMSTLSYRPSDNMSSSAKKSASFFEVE
T1 sequence (P25095 whole entry): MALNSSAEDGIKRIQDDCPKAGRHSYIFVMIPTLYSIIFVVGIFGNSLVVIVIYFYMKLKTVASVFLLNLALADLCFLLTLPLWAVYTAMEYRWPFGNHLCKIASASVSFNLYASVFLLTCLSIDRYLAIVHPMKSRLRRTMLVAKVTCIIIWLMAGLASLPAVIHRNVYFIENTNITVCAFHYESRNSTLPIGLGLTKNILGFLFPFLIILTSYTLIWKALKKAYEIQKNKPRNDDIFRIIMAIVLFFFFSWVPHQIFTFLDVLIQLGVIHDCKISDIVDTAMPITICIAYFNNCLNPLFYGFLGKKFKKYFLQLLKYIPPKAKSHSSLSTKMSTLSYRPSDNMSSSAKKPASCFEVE

[2] = Calcium channel blocking activity (CCB); format: functional
[3] = Compound was evaluated for inhibitory activity against PAF (platelet activating factor) induced platelet aggregation; format: functional
[4] = test system: Rattus norvegicus; assay: Dose required to produce 30 […] decrease in blood pressure that lasted for >6 hr.; format: functional

Row | Structure (SMILES) | IC50 [1] | IC50 [2] | IC50 [3] | Dose [4]
1 | CCCCc1nc2cccnc2n1CCCCCCCO/C(O)=C1\C(C(C)C)=NC(C)=C(C(=O)Nc2cccnc2)C1c1ccccc1Cl (stereo unspecified) | 2000 nM |  |  | 
2 | CCCCc1nc2cccnc2n1CCCCCCO/C(O)=C1\C(C(C)C)=NC(C)=C(C(=O)Nc2cccnc2)C1c1ccccc1Cl (stereo unspecified) | 100 nM |  |  | 
3 | CCCCc1nc2cccnc2n1-c1ccc(CCO/C(O)=C2\C(C)=NC(C)=C(C(=O)Nc3ccccn3)C2c2ccccc2Cl)cc1 (stereo unspecified) | 60 nM | 360 nM | > 100000 nM | 
4 | CCCCc1nc2cccnc2n1-c1ccc(CCO/C(O)=C2\C(C(C)C)=NC(C)=C(C(=O)Nc3ccccn3)C2c2ccccc2Cl)cc1 (stereo unspecified) | 120 nM | > 100000 nM | > 100000 nM | 
5 | CCCCc1nc2cccnc2n1CCCCCO/C(O)=C1\C(C(C)C)=NC(C)=C(C(=O)Nc2cccnc2)C1c1ccccc1Cl (stereo unspecified) | 200 nM |  |  | 
6 | CCCCc1nc2cccnc2n1-c1ccc(CCO/C(O)=C2\C(C(C)C)=NC(C)=C(C(=O)Nc3cccnc3)C2c2ccccc2Cl)cc1 (single isomer, unassigned; (+)) | 5300 nM |  |  | 
7 | CCCCc1nc2cccnc2n1-c1ccc(CCO/C(O)=C2\C(C(C)C)=NC(C)=C(C(=O)Nc3cccnc3)C2c2ccccc2Cl)cc1 (single isomer, unassigned; (-)) | 130 nM |  |  | 60 mg/kg
8 | CCCCc1nc2cccnc2n1-c1ccc(CCO/C(O)=C2\C(C(C)C)=NC(C)=C(C(=O)Nc3cccnc3)C2c2ccccc2Cl)cc1 (stereo in doubt) | 600 nM | > 100000 nM | 30 nM | 
9 | CCCCc1nc2cccnc2n1-c1ccc(CCO/C(O)=C2\C(C(C)C)=NC(C)=C(C(=O)Nc3cccnc3)C2c2ccccc2Cl)cc1 (stereo in doubt; 12) | 140 nM |  |  | 
